From ChEMBL document CHEMBL1152896, “Design and in silico screening of combinatorial library of antimalarial analogs of triclosan inhibiting Plasmodium falciparum enoyl-acyl carrier protein reductase” (Eur J Med Chem, 2009)
pKi: −log10 of the molar value.

Biological target: T1, Enoyl-acyl-carrier protein reductase (Plasmodium falciparum, UniProt Q965D5)
T1 sequence (Q965D5 whole entry): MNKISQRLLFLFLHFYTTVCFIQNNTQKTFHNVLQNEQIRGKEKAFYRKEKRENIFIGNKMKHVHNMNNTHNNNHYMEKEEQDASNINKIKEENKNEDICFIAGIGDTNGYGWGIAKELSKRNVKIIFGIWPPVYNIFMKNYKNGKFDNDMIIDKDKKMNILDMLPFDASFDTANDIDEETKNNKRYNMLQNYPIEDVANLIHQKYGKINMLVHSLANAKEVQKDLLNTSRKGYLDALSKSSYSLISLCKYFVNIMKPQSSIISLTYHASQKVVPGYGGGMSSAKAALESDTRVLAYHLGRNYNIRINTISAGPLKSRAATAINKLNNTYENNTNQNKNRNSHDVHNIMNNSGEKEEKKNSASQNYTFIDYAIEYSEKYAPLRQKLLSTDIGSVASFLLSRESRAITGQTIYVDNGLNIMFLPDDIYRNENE
Assay: Inhibition of Plasmodium falciparum enoyl-acyl carrier protein reductase expressed in Escherichia coli BL21(DE3) by spectrophotometry

In the case of `Oc1cc(Cl)ccc1Oc1ccc(Cl)cc1Cl` [TRICLOSAN], the pKi was 7.30.
